Source: patent US9044409B2, “Use of chromen-4-one derivatives” (Merck Patent GmbH, priority 2003, dated 2015)

Legend:
[1] = over the entire pH range; cited from earlier work
[2] = system: PGE2 release from human keratinocytes (cell line NCTC R13); assay: Antiinflammatory properties (PGE2 assay): PMA-induced PGE2 release, ELISA; format: cell-based; details: for PGE2: PMA-stimulated, 24 h; for PGE2 release % compared with control: control (only PMA) = 100
Method: Human keratinocytes of the cell line NCTC R13 are pre-cultivated for 24 hours at 37° C. in a 5% CO2 atmosphere with DMEM culture medium (Life Technologies). The cells are treated with LU for 24 hours, and the culture medium is then removed. A fresh culture medium containing the inflammation-triggering active ingredient phorbol myristate acetate (PMA; […]) and LU is added. After incubation for 24 hours, the culture medium is collected and analysed. By means of an ELISA DE0100 kit (R&D Systems), the release is used in order to investigate the release of the inflammation marker prostaglandin E2 (PGE2) (Table).

[3] = molecular target: T1, elastase (from human leukocytes) (Homo sapiens, UniProt P08246); assay: Action on the activity of leukocyte elastase (fluorescence, elastin substrate); format: biochemical
T1 construct: elastase (from human leukocytes; Sigma E8140; 100 mU/well); purchased Sigma E8140; host or cells: human leukocytes
T1 sequence (P08246 30-267): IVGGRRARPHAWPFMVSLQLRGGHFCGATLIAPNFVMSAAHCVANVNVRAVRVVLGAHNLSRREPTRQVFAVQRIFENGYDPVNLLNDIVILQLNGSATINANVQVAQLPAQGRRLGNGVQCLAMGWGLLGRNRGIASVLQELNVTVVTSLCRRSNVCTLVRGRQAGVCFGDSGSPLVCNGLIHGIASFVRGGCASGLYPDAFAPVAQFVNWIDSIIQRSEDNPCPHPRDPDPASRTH
Method: 5,7-Dihydroxy-2-methylchromen-4-one in TRIS buffer (500 mM) is incubated for 10 minutes on ice with elastase (from human leukocytes; Sigma E8140; 100 mU/well). 5 μg/well of elastin are subsequently added, and the plates are incubated at 37° C. for 2 hours. The fluorescence is determined using a Spectromax Gemini spectrometer (Molecular Devices) at λex=485 nm and λem=538 nm.

[4] = molecular target: T2, hyaluronidase (HYAL, Sigma type IV-S, H3884) (Bos taurus, UniProt Q2YDK3); assay: Action on the activity of hyaluronidase (remaining hyaluronic acid determined photometrically); format: biochemical; details: for Hyaluronidase activity: control (no LU) = 100
T2 construct: hyaluronidase (HYAL, Sigma type IV-S, H3884)
T2 sequence (Q2YDK3 1-553): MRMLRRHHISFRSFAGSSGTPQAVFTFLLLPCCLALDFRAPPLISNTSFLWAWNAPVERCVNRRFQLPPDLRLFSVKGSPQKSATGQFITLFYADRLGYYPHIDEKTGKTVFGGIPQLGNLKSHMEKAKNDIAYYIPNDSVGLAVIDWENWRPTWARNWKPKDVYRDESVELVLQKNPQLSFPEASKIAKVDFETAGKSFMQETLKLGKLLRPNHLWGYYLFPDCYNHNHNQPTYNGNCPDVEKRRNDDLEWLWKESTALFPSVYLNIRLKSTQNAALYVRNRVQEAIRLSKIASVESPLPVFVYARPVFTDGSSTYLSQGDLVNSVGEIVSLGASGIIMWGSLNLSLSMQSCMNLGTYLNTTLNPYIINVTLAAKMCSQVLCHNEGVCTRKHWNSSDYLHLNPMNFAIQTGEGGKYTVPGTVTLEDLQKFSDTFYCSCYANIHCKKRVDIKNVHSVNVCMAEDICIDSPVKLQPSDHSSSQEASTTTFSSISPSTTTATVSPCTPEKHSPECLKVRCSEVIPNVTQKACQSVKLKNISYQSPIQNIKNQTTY
Method: 5,7-Dihydroxy-2-methylchromen-4-one in phosphate buffer (0.1 M) is pre-incubated with hyaluronidase (HYAL, Sigma type IV-S, H3884; 1 mg/l in phosphate buffer (0.1 M)). Hyaluronic acid (HA, Sigma H-1876; 1.2 mg/ml) is subsequently added, and the mixture is incubated at 37° C. for 1 hour. The remaining hyaluronic acid (HA) is subsequently precipitated using serum albumen (BSA, Sigma A7888) and determined photometrically.

[5] = system: keratinocyte cultures; details: cited from earlier work

O=c1c(O)c(-c2ccc(O)c(O)c2)oc2cc(O)cc(O)c12 [Quercetin, 3,3′,4′,5,7-pentahydroxyflavone]
antioxidant activity [1]: greatest activity amongst the structures investigated

Cc1cc(=O)c2c(O)cc(O)cc2o1 [LU, 5,7-dihydroxy-2-methylchromen-4-one]
PGE2 ([2]; 0.008 mM LU): 340.62 ng/mL | PGE2 release % compared with control ([2]; 0.008 mM LU): 113% | PGE2 ([2]; 0.04 mM LU): 226.39 ng/mL | PGE2 release % compared with control ([2]; 0.04 mM LU): 75% | PGE2 ([2]; 0.2 mM LU): 6.31 ng/mL | PGE2 release % compared with control ([2]; 0.2 mM LU): 2% | PGE2 release on exposure to PMA (in words) ([2]; doses of 0.2 mM and 0.04 mM): clear reduction in PGE2 release | % quenching ([3]; 40 μM LU): 0% | Fluorescence intensity ([3]; 40 μM LU): 2195.9 | inhibition at 40 µM ([3]; 40 μM LU): 10% | remaining activity at 40 µM ([3]; 40 μM LU, neg. control = 100, read-out: Elastase activity % compared with control): 90% | % quenching ([3]; 200 μM LU): 19% | Fluorescence intensity ([3]; 200 μM LU): 1096.4 | inhibition at 200 µM ([3]; 200 μM LU): 45% | remaining activity at 200 µM ([3]; 200 μM LU, neg. control = 100, read-out: Elastase activity % compared with control): 45% | Inhibition of the elastase activity (in words) ([3]; doses of 200 μM and 40 μM): clear inhibition of the elastase activity | inhibition at 3125 µM ([4]; 3.125 mM LU): 9% | Hyaluronidase activity ([4]; 3.125 mM LU): 91 | inhibition at 6250 µM ([4]; 6.25 mM LU): 19% | Hyaluronidase activity ([4]; 6.25 mM LU): 81 | inhibition at 12500 µM ([4]; 12.5 mM LU): 37% | Hyaluronidase activity ([4]; 12.5 mM LU): 63 | inhibition at 25000 µM ([4]; 25 mM LU): 63% | Hyaluronidase activity ([4]; 25 mM LU): 37 | Inhibition of hyaluronidase activity (in words) ([4]; in the doses investigated (3.125-25 mM)): clear inhibition of hyaluronidase activity

O=C1CCOc2ccccc21 [Example 4-chromanone, 4-chromanone]
cell differentiation [5]: promotes cell differentiation | lipid production [5]: stimulates lipid production
